The values below come from US6417159B1 (Queen's University at Kingston, priority 1996, dated 2002).

One series has as its system ED8 chick DRG neurons. The experiment in a line: NGF-mediated neurite growth by ED8 chick DRG sensory neurons. It counts as cell-based. As to conditions: for % of Control Response DRG: (peptide with NGF − NGF alone)/(R3 with NGF − NGF alone) ×100, scored at 43, 44 and 48 hours, M ± SEM, n = 3 assays; for Reduction (loss) of biological effect relative to R3 on enhancement of NGF-mediated neurite growth: DRG cells, 40-50 hours in vitro; for Neurite growth in control wells: 16-20 hours.

The target in the next series is T1, p65 subunit of NFkB (Rattus norvegicus, UniProt Q7TQN4).
T1 construct: endogenous in cells; host or cells: PC12 (soluble cell extract)
The experiment in a line: Chemical cross-linking of 125I-Y-R3 to 65 kDa species in PC12 soluble extract, displacement by unlabeled peptide. It counts as binding. The settings on record: for Displacement of radiolabel from 65 kDa band: 0.5 μM 125I-Y-R3, 150-fold molar excess of unlabeled peptide, densitometric scanning. As for the experimental part:
Y-R3 (5 μg) was labeled with 1 mCi of Na^125I (Amersham) using iodobeads (Pierce) in 50 mM sodium phosphate buffer, as described in Part A. ^125I-Y-R3 (0.5 μM) was incubated with PC12 cell extract (prepared as above) or affinity purified proteins at pH 7.0, with and without a 150-fold molar excess of competing unlabeled peptide for 2 hrs at 4° C. At that time, EDC (Pierce) and NHS (Pierce) were added to a final concentration of 2 mM each and the reaction allowed to proceed for 30 min at room temperature. The reaction was quenched by adding Tris-HCl to a final concentration of 50 mM. An aliquot was removed and mixed with 4 volumes of SDS sample buffer for SDS-PAGE and the remainder subjected to immunoprecipitation.
Cell extract or R3 affinity purified material was incubated for 4 hrs at 4° C. with 5 μl of agarose conjugated goat anti-NFkB p65 (Santa Cruz). The gel was washed at 4° C. with 5×1 ml of HKR containing 1% NP40, followed by a final wash without detergent. SDS reducing sample buffer was added to the gel and the samples were heated at 95° C. for 5 minutes prior to electrophoresis as described above.
To examine the structural specificity of the interaction of R3 peptide with the 65 kDa species, PC12 cell soluble extract was chemically cross-linked with 0.5 μM ^125I-Y-R3 in the absence and presence of a 150-fold molar excess of unlabeled R9 or R10. […] The reaction mixtures were separated by SDS-PAGE, followed by autoradiography.

Series [1] relates to PC12 cells. Format: cell-based, rat. As for the experimental part:
Labeling of all tyrosinated peptides for uptake studies were carried out using IODO-BEADS™ (Pierce). Briefly, 5 μg of the desired peptide was iodinated at pH 7.4, at room temperature, and separated from free iodide by selective elution from a C-18 SEP PAK LIGHT™ (Waters-Millipore) in 80% CH3CN, 1.0% trifluoroacetic acid. The solvent was removed at room temperature under a stream of nitrogen. Specific activity of labeled peptide was 50-65 cpm-pg^−1.
Stock solutions of [^125I]-labeled peptides (final concentration […], specific activity 50-800 cpm·pmol^−1) were prepared in RPMI medium with 10% fetal calf serum. Uptake was initiated by adding the peptide to the cell suspension in RPMI 1640 with 10% fetal calf serum, maintained at 37° C. Cell-associated label was determined by counting the cell pellet obtained by microcentrifuging an aliquot (100 μl containing 1-3×10^5 cells) of the cell suspension through a layer of silicone oil. The silicone oil was 3:1 mixture of dibutyl phthalate:dinonyl phthalate (Fluke Chemie, Switzerland) with a density of 1.027 (Drevon et al., 1977).
The uptake versus were corrected for “adsorption” of peptides to the cell surface at zero time. This was assessed by determining label that remained associated with cells removed immediately after the addition of [^125I]-peptide and washed by 2 cycles of centrifugation at […] for 5 minutes and resuspension in peptide-free tissue culture medium. At the indicated times, cold chase values were obtained by removing an aliquot (500 μl) of the cell suspension for centrifugation at 150×g for 5 minutes, followed by resuspension in its initial volume of RPMI+10% fetal calf serum containing 50 μM (10×original) unlabeled peptide. The cell suspension was then returned at 37° C. for a further 30 minutes. At the end of this time, cell-associated label was determined as above.

Series [2] has as its system PC12 cells. Nature of the series: NGF-mediated neurite growth by PC12 cells. The settings on record: PC12 cells, peptide co-incubated with NGF. Format: cell-based, rat. How it is done: PC12 cells or PC12^nnr5 cells (Loeb et al., 1991) were seeded on poly-D-lysine-coated (0.1 mg·ml^−1, overnight) 96-well microculture dishes (Falcon) at approximately 800 cells per well with RPMI with 10% fetal calf serum. Peptides were added to replicate wells 48 hours before, or at the time of, addition of NGF. NGF was prepared by the method of Mobley et al. (1976) and used at 1-2 nM. Other additives were diluted at least 100-fold and added to the wells as described. At various times following incubation at 37° C., 5% CO2, wells were scored for neurite-bearing cells by serial counting of representative circumferences of each well.
A Leitz Diavert inverted microscope with phase optics was used to score neurite growth. For both PC12 cells and sensory neurons, a neurite was scored as such if its calibre from origin to terminal was approximately the same and the length was equal to or greater than 1.5 cell body diameters.

The next series deals with c-fos mRNA. As to conditions: one-hour exposure.
Series [3] concerns PC12 cells. The experiment in a line: Cytotoxicity in PC12 cultures. The settings on record: concentration of 50 μM.
Series [4] concerns the target T2, p65 subunit of transcription factor NFkB from PC12 cell soluble extract (rat, UniProt Q7TQN4 1-550).
T2 construct: also called NFkB p65; 65 kDa species
Nature of the series: affinity chromatography of PC12 soluble extract on R3 matrix, SDS-PAGE, silver stain. How it is done:
PC12 cells were harvested and washed by 3 cycles of resuspension and centrifugation in Ca^2+, Mg^2+-free Gey's Balanced Salt Solution (CMF). […] The column was then washed with 10 bed volumes of homogenizing buffer and 10 bed volumes of detergent-free homogenizing buffer. The bound material was then eluted with 0.5 mg/ml R3 peptide. The eluate was dialyzed (3500 cut off) extensively against 10 mM sodium phosphate pH 7.4 and taken to dryness under reduced pressure on a Speed Vac (Savant).
A soluble extract of PC12 cells was applied to the R3 affinity resin. […] A similar profile was obtained when extracts from "primed" (exposed to 100 ng/ml NGF for 10 days) PC12 cells, PC12^nnr5 cells or ED9 chick brain were used.

Series [5] addresses T2, p65 subunit of transcription factor …. Nature of the series: competition of unlabeled R3 against 125I-Y-R3 cross-linking to the 65 kDa protein. How it is done:
(§1) At that time, EDC (Pierce) and NHS (Pierce) were added to a final concentration of 2 mM each and the reaction allowed to proceed for 30 min at room temperature. The reaction was quenched by adding Tris-HCl to a final concentration of 50 mM. An aliquot was removed and mixed with 4 volumes of SDS sample buffer for SDS-PAGE and the remainder subjected to immunoprecipitation.
The p65 subunit of NFkB was detected in PC12 soluble extracts and in the R3-affinity purified material (FIG. 9A). This 65 kDa protein could also be specifically cross-linked to the iodinated probe for the intracellular domain of P75^NTR, the interaction being displaced by a 150-fold molar excess of unlabeled peptide, and the complex immunoprecipitated by antibodies to the transcription factor (FIGS. 9B and […]).

Series [6] shares this target. Nature of the series: chemical cross-linking (EDC/NHS) of 125I-Y-R3 to PC12 soluble extract, SDS-PAGE, autoradiography. As for the experimental part: as §1
Setting [7] is: 10 μM peptide in solution, no additive to culture medium.
The mark [8] stands for this setting: time course of association with PC12 cells.

Values joined by “and” are separate entries in the source; they are usually repeats but may differ in a detail not shown here. Equal entries are not always repeated. Where two headings read alike, the source gives them in different places. Where no end group is shown, it is not given here. The star is where a group is joined. 125I = [125I]*

T1 sequence (Q7TQN4 whole entry): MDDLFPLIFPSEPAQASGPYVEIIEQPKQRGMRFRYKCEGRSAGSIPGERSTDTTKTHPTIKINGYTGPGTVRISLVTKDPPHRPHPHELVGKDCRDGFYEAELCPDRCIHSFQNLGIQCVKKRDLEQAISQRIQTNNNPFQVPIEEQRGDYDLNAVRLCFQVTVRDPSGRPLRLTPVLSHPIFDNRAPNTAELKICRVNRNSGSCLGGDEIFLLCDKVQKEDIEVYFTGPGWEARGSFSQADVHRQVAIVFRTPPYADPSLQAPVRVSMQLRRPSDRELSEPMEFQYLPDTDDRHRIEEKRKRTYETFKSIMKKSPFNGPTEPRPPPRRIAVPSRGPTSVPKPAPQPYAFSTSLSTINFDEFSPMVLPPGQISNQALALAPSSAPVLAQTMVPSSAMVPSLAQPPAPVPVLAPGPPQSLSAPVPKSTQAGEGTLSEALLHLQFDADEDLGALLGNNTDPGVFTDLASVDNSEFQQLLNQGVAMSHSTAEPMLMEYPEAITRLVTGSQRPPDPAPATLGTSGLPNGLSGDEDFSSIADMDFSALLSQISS
T2 sequence (Q7TQN4 whole entry): as above

On to LDALLAALRAIQR [R9], for which, in the series with ED8 chick DRG neurons, the “% of Control Response DRG” value is 61 ± 1^(5) % and the “Reduction (loss) of biological effect relative to R3 on enhancement of NGF-mediated neurite growth” value is recorded as “approximately 40%”. Also, in the series on ED8 chick DRG neurons (in vitro), the “Activity relative to R3 in influencing NGF-mediated neurite growth” value is 50-60% and 61%. The “Displacement of radiolabel from 65 kDa band” value with p65 subunit of NFkB was 76%.
With LDALLAALRRRQR [R10], in the series on ED8 chick DRG neurons, the “% of Control Response DRG” value is reported as 29 ± 4^(5) % and the “Reduction (loss) of biological effect relative to R3 on enhancement of NGF-mediated neurite growth” value was “approximately 70%”. Also, the “Displacement of radiolabel from 65 kDa band” value with p65 subunit of NFkB worked out at 43%.
As to “R4: hybrid: R3 linked via its amino terminus to an 11-amino acid peptide homologue of the inner transmembrane domain of p75^NTR (Sequence ID No. 7) (VVVGLVAYIAFLDALLAALRRIQR)”, in the series on PC12 cells [1], the “Cell association resistant to chase (uptake), in words” value was “did not suggest an uptake process”. Moreover, the “Time at half-maximal uptake” value in the series on PC12 cells [1] (setting [7]) turned out to be 0 min. Moreover, the “Effect on NGF-mediated neurite growth, co-incubation, in words” value in the series on PC12 cells [2] is “did not enhance NGF-mediated neurite growth”.
For “Y-R3: tyrosinated peptide analogue of R3, N-terminal tyrosine (Sequence ID No. 6); radio-iodinated for uptake and cross-linking (YLDALLAALRRIQR; also: radio-iodinated)”, in the series with PC12 cells [1], the “Uptake at full saturation” value worked out at 20 pmol/10^6 cells. In the series with PC12 cells [1] (setting [7]), the “Time at half-maximal uptake” value came out at 30 min. Besides, the “Time at half-maximal uptake” value in the series with PC12 cells [1] (10 μM peptide, MgCl2 (10 mM) added to culture medium) is listed as 30 min. Moreover, in the series on PC12 cells [1] (cold chase), the “Time for which label remained resistant to chase by excess unlabeled R3” value is “up to 50 hours”. In the series with PC12 cells [1] (setting [8]), the “Time at which uptake was half-maximally saturated” value came out at 30 min and the “Time to full saturation of uptake” value lay within 10 to 20 h. Moreover, the “Interaction with 65 kDa species by chemical cross-linking, in words” value with p65 subunit of NFkB (soluble PC12 extract) is “interacted specifically”.
With mastoparan [MP], the “Effect on NGF-mediated neurite growth, co-incubation, in words” value in the series with PC12 cells [2] was “did not significantly influence”. Moreover, in the series with c-fos mRNA, the “Effect on NGF-mediated c-fos mRNA induction, in words” value is “stimulatory effect”. In the series on PC12 cells [3], the “Cytotoxicity, in words” value was “cytotoxic”.
Take nerve growth factor [NGF]: the “Neurite growth in control wells” value came to 5.5±2.1 in the series on ED8 chick DRG neurons (NGF 0.04 pM alone), 14.0±6.1 with ED8 chick DRG neurons (NGF 0.4 pM alone), 31.7±8.7 in the series on ED8 chick DRG neurons (NGF 4 pM alone) and 44.8±8.6 in the series on ED8 chick DRG neurons (NGF 40 pM alone).

B1: R3 affinity matrix peptide (R3 with six residues added to the N-terminus, coupled to Aminolink agarose) (peptide)
peptide: KAYIAFLDALLAALRRIQR
modifications: also: coupled at pH 7.0 to Aminolink agarose
notes: Immobilised on agarose beads in the assay
With B1, the binding result in series [4] is listed as “binds”.
Regarding LDALLAALRRIQR (also called peptide R3; unlabeled R3) [R3 peptide (synthetic peptide identical to rat p75NTR 367-379)], the binding result in series [5] is reported as “binds”.

B2: 125I-Y-R3 (R3 peptide with N-terminal tyrosine, radio-iodinated) (peptide)
peptide: Y(125I)LDALLAALRRIQR
notes: Used at 0.5 uM in cross-linking with EDC/NHS; also called tyrosinated peptide analogue of R3; iodinated probe for the intracellular domain of p75NTR
Regarding B2, in series [6], the binding result is “binds”.
